Laboratory results: patent US11566007B2, “Ras inhibitors” (Revolution Medicines, Inc., priority 2019, dated 2023)
pEC50, pIC50: −log10 of the molar value. “And” between values parts separate entries of the source, which are not always exact repeats. Equal values may be shown once. Read-outs that look alike come from different tables or passages of the source.

Experiments:
KRAS G12V = KRAS G12V (Homo sapiens (Human), UniProt P01116+P62937, G12V); test: Ras-Raf (BRAF RBD) disruption / FRET / MOA assay, KRAS G12V; format: biochemical; settings: read-out: IC50* KRAS G12V FRET data
Procedure, shortened: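 Ras:RAF disruption was scored as a fall in TR-FRET ratio relative to DMSO. Compound ranged in 3-fold steps over 10 points from 30 μM final; incubation ran 3 h at 25° C, detection antibodies a further 1.5 h. Reported as IC50.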

NRAS Q61K = NRAS Q61K (Homo sapiens (Human), UniProt P01111+P62937, Q61K); test: Ras-Raf (BRAF RBD) disruption / FRET / MOA assay, NRAS Q61K; format: biochemical; settings: NRAS Q61K; Ras-Raf disruption/FRET/MOA assay; read-out: IC50* NRAS Q61K FRET data
Procedure, shortened: (§1)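 TR-FRET disruption of nucleotide-loaded Ras binding to BRAF RBD via compound-driven ternary complex with cyclophilin A. Compound as 10-point 3-fold series from 30 μM final, 3 h at 25° C, then anti-His Eu-W1024 (10 nM) and anti-GST allophycocyanin (50 nM) for 1.5 h. IC50 from decreased FRET ratio versus DMSO.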

NCI-H358 (K-Ras G12C) = test: CellTiter-Glo cell viability assay, NCI-H358; format: cell-based, human; settings: Homo sapiens, NCI-H358, 120 h; for pIC50: NCI-H358, 5-day treatment, class symbols, read-out: Additional H358 Cell Viability assay data (K-Ras G12C, IC50)
Procedure, shortened: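 Viability measured by CellTiter-Glo luminescence on day 5 following direct addition of compound to plated cells. Values expressed as percent of mean DMSO signal; curves fitted with a four-parameter logistic model.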

KRAS Q61H = KRAS Q61H (Homo sapiens (Human), UniProt P01116+P62937, Q61H); test: Ras-Raf (BRAF RBD) disruption / FRET / MOA assay, KRAS Q61H; format: biochemical; settings: Ras-Raf disruption/FRET/MOA assay; class symbols; read-out: KRAS Q61H FRET data IC50
Procedure, shortened: as §1

[1] = system: NCI-H358 cells (K-Ras G12C); test: Potency assay: pERK in NCI-H358 cells; format: cell-based, human; settings: Homo sapiens
Procedure, shortened: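 4 h cpd, 37 °C; 10-pt 3-fold series, 10 mM DMSO top stock, duplicates. Readout pERK: AlphaLISA SureFire Ultra or In-Cell Western (IR-800CW secondary, DRAQ5 DNA stain). IC50, 4-PL fit vs log conc.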

[2] = NCI-H358, H358 KRAS G12C, read-out: pERK EC50

KRAS G12V, sequence (P01116-2 other isoform, or with tags, fused parts or gaps G12V): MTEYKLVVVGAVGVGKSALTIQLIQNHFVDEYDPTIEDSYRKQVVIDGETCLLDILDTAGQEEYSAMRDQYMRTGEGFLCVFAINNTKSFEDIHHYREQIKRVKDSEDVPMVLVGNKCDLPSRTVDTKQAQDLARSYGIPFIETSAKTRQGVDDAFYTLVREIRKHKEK
KRAS G12V, sequence (P62937 whole entry): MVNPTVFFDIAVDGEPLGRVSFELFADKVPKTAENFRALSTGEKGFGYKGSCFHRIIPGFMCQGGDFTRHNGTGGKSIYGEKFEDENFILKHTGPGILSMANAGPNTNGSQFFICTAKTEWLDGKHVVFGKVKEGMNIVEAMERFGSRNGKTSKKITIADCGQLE
KRAS Q61H, sequence (P01116-2 other isoform, or with tags, fused parts or gaps Q61H): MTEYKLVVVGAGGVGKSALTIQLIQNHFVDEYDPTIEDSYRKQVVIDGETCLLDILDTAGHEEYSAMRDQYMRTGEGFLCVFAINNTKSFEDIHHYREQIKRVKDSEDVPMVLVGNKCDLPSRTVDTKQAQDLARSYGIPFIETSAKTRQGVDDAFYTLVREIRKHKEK
KRAS Q61H, sequence (P62937 whole entry): as the sequence (P62937 whole entry) above
NRAS Q61K, sequence (P01111 whole entry Q61K): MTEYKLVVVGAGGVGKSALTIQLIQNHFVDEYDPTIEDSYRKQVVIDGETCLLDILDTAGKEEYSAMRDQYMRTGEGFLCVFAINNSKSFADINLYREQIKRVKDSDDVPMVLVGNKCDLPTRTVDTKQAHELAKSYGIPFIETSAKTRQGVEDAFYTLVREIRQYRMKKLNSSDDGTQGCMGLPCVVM
NRAS Q61K, sequence (P62937 whole entry): as the sequence (P62937 whole entry) above

Structure (SMILES)	pIC50 (KRAS G12V)	pIC50 (NRAS Q61K)	pIC50 (NCI-H358 (K-Ras G12C))	pIC50 (KRAS Q61H)	pEC50 [1, 2]	IC50 (NCI-H358 (K-Ras G12C); read-out: H358 Cell Viability (K-Ras G12C) IC50, uM, NCI-H358, 5-day treatment) [µM]	pEC50 ([1]; NCI-H358, read-out: pERK EC50)
C=CC(=O)N(C)C[C@H]1CCN1C(=O)N(C)[C@H](C(=O)N[C@H]1Cc2nc(cs2)-c2ccc3c(c2)c(c(-c2cccnc2[C@H](C)OC)n3CC)CC(C)(C)COC(=O)[C@@H]2CCCN(N2)C1=O)C(C)C (atropisomer, axis not shown) [Example A369]	6.00 to 7.00	7.00 to 8.00	7.00 to 8.00	6.00 to 7.00	> 5.30		
CCn1c(-c2cccnc2[C@H](C)OC)c2c3cc(ccc31)-c1csc(n1)C[C@H](NC(=O)[C@H](C(C)C)N(C)C(=O)N(C)C1CN(C(=O)/C=C/[C@H]3CCCN3C)C1)C(=O)N1CCC[C@H](N1)C(=O)OCC(C)(C)C2 (atropisomer, axis not shown) [Example A729]	5.00 to 6.00	6.00 to 7.00	6.00 to 7.00	6.00 to 7.00	> 5.30		
C=CC(=O)N1CC[C@]2(COCCN2C(=O)N(C)[C@H](C(=O)N[C@H]2Cc3nc(cs3)-c3ccc4c(c3)c(c(-c3cccnc3[C@H](C)OC)n4CC)CC(C)(C)COC(=O)[C@@H]3CCCN(N3)C2=O)C(C)C)C1 (atropisomer, axis not shown) [Example A676]	5.00 to 6.00	6.00 to 7.00	7.00 to 8.00	7.00 to 8.00	> 5.30		
C=CC(=O)N1CC[C@H](C(=O)N(C)[C@H](C(=O)N[C@H]2Cc3nc(n(C)n3)-c3ccc4c(c3)c(c(-c3cccnc3[C@H](C)OC)n4CC)CC(C)(C)COC(=O)[C@@H]3CCCN(N3)C2=O)C(C)C)C1 (atropisomer, axis not shown) [Example A314]	5.00 to 6.00	6.00 to 7.00	6.00 to 7.00	6.00 to 7.00	> 5.30		
C=CC(=O)N1CC2(CCN2C(=O)N(C)[C@H](C(=O)N[C@H]2Cc3cccc(n3)-c3ccc4c(c3)c(c(-c3cccnc3[C@H](C)OC)n4CC)CC(C)(C)COC(=O)[C@@H]3CCCN(N3)C2=O)C(C)C)C1 (atropisomer, axis not shown) [Example A636]	5.00 to 6.00	6.00 to 7.00	> 8.00	6.00 to 7.00	> 5.30		
C=CC(=O)N1CC[C@H](C(=O)N2CCCCC[C@H]2C(=O)N[C@H]2Cc3nc(cs3)-c3ccc4c(c3)c(c(-c3cccnc3[C@H](C)OC)n4CC)CC(C)(C)COC(=O)[C@@H]3CCCN(N3)C2=O)C1 (atropisomer, axis not shown) [Example A495]	5.00 to 6.00	5.00 to 6.00	7.00 to 8.00	5.00 to 6.00	> 5.30		
C=CC(=O)N1CCC2(CCN(C(=O)N(C)[C@H](C(=O)N[C@H]3Cc4cccc(c4)-c4ccc5c(c4)c(c(-c4cccnc4[C@H](C)OC)n5CC)CC(C)(C)COC(=O)[C@@H]4CCCN(N4)C3=O)C(C)C)CC2)C1 (atropisomer, axis not shown) [Example A554]	6.00 to 7.00	6.00 to 7.00	6.00 to 7.00	6.00 to 7.00	> 5.30		
CCn1c(-c2cccnc2[C@H](C)OC)c2c3cc(ccc31)-c1cccc(c1)C[C@H](NC(=O)[C@@H](COC1CN(C(=O)C#CC(C)(C)O)C1)C(C)C)C(=O)N1CCC[C@H](N1)C(=O)OCC(C)(C)C2 (atropisomer, axis not shown) [Example A708]	5.00 to 6.00	< 5.00	7.00 to 8.00	5.00 to 6.00	> 5.30		
C=CC(=O)N(C)[C@H]1CN(C(=O)N(C)[C@H](C(=O)N[C@H]2Cc3nc(cs3)-c3ccc4c(c3)c(c(-c3cccnc3[C@H](C)OC)n4CC)CC(C)(C)COC(=O)[C@@H]3CCCN(N3)C2=O)C(C)C)C[C@@H]1F (atropisomer, axis not shown) [Example A632]	6.00 to 7.00	6.00 to 7.00	6.00 to 7.00	6.00 to 7.00	> 5.30		
C=CC(=O)N1CC[C@H](C(=O)N(C)[C@H](C(=O)N[C@H]2Cc3cc(O)cc(c3)-c3ccc4c(c3)c(c(-c3cccnc3[C@H](CC)OC)n4CC)CC(C)(C)COC(=O)[C@@H]3CCCN(N3)C2=O)C(C)C)C1 (atropisomer, axis not shown) [Example A181]	6.00 to 7.00 and 5.00 to 6.00	6.00 to 7.00	7.00 to 8.00	7.00 to 8.00	> 5.30		
C=CC(=O)N1CCC2(CCCN(C(=O)N(C)[C@H](C(=O)N[C@H]3Cc4nc(cs4)-c4ccc5c(c4)c(c(-c4cccnc4[C@H](C)OC)n5CC)CC(C)(C)COC(=O)[C@@H]4CCCN(N4)C3=O)C(C)C)C2)CC1 (atropisomer, axis not shown) [Example A696]	6.00 to 7.00	7.00 to 8.00	6.00 to 7.00	7.00 to 8.00	> 5.30		
CCn1c(-c2cccnc2[C@H](C)OC)c2c3cc(ccc31)-c1csc(n1)C[C@H](NC(=O)CCO[C@H]1CCN(C(=O)C#CC(C)(C)N3CCC3)C1)C(=O)N1CCC[C@H](N1)C(=O)OCC(C)(C)C2 (atropisomer, axis not shown) [Example A381]	5.00 to 6.00	5.00 to 6.00	7.00 to 8.00	5.00 to 6.00	> 5.30		
C=CC(=O)N1CC[C@H](C(=O)N(C)[C@H](C(=O)N[C@H]2Cc3cc(O)cc(c3)-c3ccc4c(c3)c(c(-c3csc(N(C)C)n3)n4CC)CC(C)(C)COC(=O)[C@@H]3CCCN(N3)C2=O)C(C)C)C1 [Example A303]	< 5.00	< 5.00	6.00 to 7.00	5.00 to 6.00	> 5.30		
C=CC(=O)N1CCO[C@]2(CCN(C(=O)N(C)[C@H](C(=O)N[C@H]3Cc4nc(cs4)-c4ccc5c(c4)c(c(-c4cccnc4[C@H](C)OC)n5CC(F)(F)F)CC(C)(C)COC(=O)[C@@H]4CCCN(N4)C3=O)C(C)C)C2)C1 (atropisomer, axis not shown) [Example A593]	5.00 to 6.00	6.00 to 7.00	6.00 to 7.00	6.00 to 7.00	> 5.30		
C=CC(=O)C1CC[C@H](C(=O)N(C)[C@H](C(=O)N[C@H]2Cc3nsc(n3)-c3ccc4c(c3)c(c(-c3cccnc3[C@H](C)OC)n4CC)CC(C)(C)COC(=O)[C@@H]3CCCN(N3)C2=O)C(C)C)C1 (some centres unmarked) [Example A694]	5.00 to 6.00	6.00 to 7.00	7.00 to 8.00	6.00 to 7.00	> 5.30		
C=CC(=O)N1CC[C@H](C(=O)N(C)[C@H](C(=O)N[C@H]2Cc3cc(O)cc(c3)-c3ccc4c(c3)c(c(-c3cccnc3)n4[C@H](C)C#N)CC(C)(C)COC(=O)[C@@H]3CCCN(N3)C2=O)C(C)C)C1 [Example A193]	6.00 to 7.00	5.00 to 6.00		6.00 to 7.00		0.054	> 5.30
